Measurements: US20250092401A1, “COMBINATION THERAPY FOR TREATING HEPATITIS B VIRUS INFECTIONS” (GLAXOSMITHKLINE INTELLECTUAL PROPERTY DEVELOPMENT LIMITED, priority 2022, published 2025)
Values after ≈ are worked out from the molar mass of the structure shown. Values joined by “and” are separate entries in the source; they are usually repeats but may differ in a detail not shown here. Equal values may be shown once. Read-outs that look alike come from different tables or passages of the source.

How the values were obtained:
HBV HBsAg [1] = test: HBsAg reduction in HBV infected primary human hepatocytes (ELISA); assay type: cell-based; details: Hepatitis B virus, Hepatocyte
Procedure: The potency (pIC50) of Compound A for reduction of HBV HBsAg was investigated in primary human hepatocytes (PHH) from three donors. HBV infected PHH samples were treated with Compound A for 21 days and secreted HBsAg was measured using an ELISA assay to determine the % inhibition and average potency of the replicates (two per PHH donor).
(§1) The antiviral activity of Compound A was evaluated in in vitro HBV systems: (1) HepAD38, a hepatoma cell line with inducible expression of HBV, (2) primary human hepatocytes (PHHs) infected with HBV, and in vivo in infected male C57BL/6 mice with AAV-HBV. Overall there is a correlation between in vitro potency (HepAD38 & PHHs) and AAV-HBV in vivo model HBsAg inhibition.

[2] = test system: primary human hepatocytes (PHH); test: Visual examination for cell toxicity in PHH; assay type: cell-based; details: HBV infected PHH, 21 days treatment
[3] = Toxicity evaluation incl. nerve toxicity, 28 days of dosing, rats; assay type: in vivo; details: 28 days of dosing followed by 6 week off dose period
Procedure: (§2) Studies were conducted to evaluate toxicity, including additional endpoints investigating nerve toxicity of Compound A after 28 days of dosing followed by a 6 week off dose period in rats and monkeys.

[4] = Toxicity evaluation incl. nerve toxicity, 28 days of dosing, monkeys; assay type: in vivo; details: 28 days of dosing followed by 6 week off dose period
Procedure: as §2

HBV HBsAg [5] = test: HBsAg reduction in HepAD38 cell line (HBsAg ELISA); assay type: cell-based, hepatitis B virus (HBV); details: Hepatitis B virus; for EC50: HePAD38, 168 h, read-out: HBsAg (EC50)
Procedure: HepAD38 cells were maintained in collagen-coated flasks in cell culture medium (DMEM/F12 containing 10% fetal bovine serum (FBS), GlutaMax-1, penicillin/streptomycin, non-essential amino acids, Na pyruvate, 250 μg/mL geneticin, and 1 μg/mL doxycycline). Compound solutions were prepared in DMSO and compounds were serially diluted for final concentrations of 4000, 1000, 250, 62.5, 15.6, 3.91, 0.977, 0.244, 0.061, and 0.015 nM. The cells were then trypsinized and the cells were plated at 10,000 cells per well. Plates were incubated at 37° C., 5% CO2 for 4 days. Media was replaced with new media with compound treatment. The plates were then incubated at 37° C., 5% CO2 for an additional 3 days for a total treatment time of 7 days. For antiviral response, HBsAg was measured using the HBsAg ELISA kit (International Immuno-diagnostics) with instructions provided. 100 μL of cell media samples was used for ELISA. The absorbance was read on the SPECTRAMAX 384 plate reader (Molecular Devices) at 450 nm. For cell toxicity, the cells were used for CELLTITER-GLO Luminescent Cell Viability Assay reagent (Promega). The luminescence was read on Envision Multilabel Reader (Perkin Elmer). The data was analyzed compared to the DMSO control.
% inhibition=(1−(unknown/high control))*100
The average % inhibition values from duplicate assay plates were then plotted in GraphPad Prism to determine one EC value: Four-parameter logistic curve with equation Y=Bottom+(Top-Bottom)/(1+10^((Log EC50−X)*Hillslope))
as §1

PAPD5 = PAPD5 (Homo sapiens, UniProt Q8NDF8); test: PAPD5 A15 RNA SPA biochemical assay
Procedure: (§3) Dose-response studies were conducted for Compound A and RG7834 in the PAPD5 and PAPD7 A15 RNA SPA formats. Four different batches of Compound A and two different batches of RG7834 were used in both assays. Reactions contained 5 uM ATP, 0.0025 uCi/uL 3H-ATP, 50 nM A15 RNA, 10 nM enzyme in assay buffer (20 mM Tris 7.5, 3 mM CHAPS, 0.05% dBSA, 10 mM MgCl2, 1 mM DTT, 25 mM KCl). Reaction product was detected using SPA bead mix, final concentrations were 1 mg/mL PEI-PS, 1.25 mM ATP, 11.25 mM EDTA. End point signal detection correlated with slopes of reaction time courses. Curve fitting was performed using 4-parameter fitting in ActivityBase software.

PAPD7 = PAPD7 (Homo sapiens, UniProt Q5XG87); test: PAPD7 A15 RNA SPA biochemical assay; details: 10 nM enzyme, 5 uM ATP, 50 nM A15 RNA; read-out: average pIC50 PAPD7 (converted)
Procedure: as §3

AAV-HBV [6] = test: AAV-HBV mouse model, mono-treatment; assay type: in vivo, male C57BL/6 mice; details: for HBsAg reduction: within one week of treatment, sustained
Procedure: After 28 days of infection with AAV-HBV, mono-treatment of the infected male C57BL/6 mice with either Compound A or bepirovirsen was initiated. […] HBsAg reduction for the 3 and 30 mg/kg Compound A dose groups was close to 1 log and 1 log, respectively, within one week of treatment and reduction levels were sustained throughout the duration of the treatment period. […] The maximum observed reduction in HBeAg was 0.5 log at 30 mg/kg Compound A. There was a small reduction (0.26 to 0.40 log) in HBV DNA at the 3 and 30 mg/kg Compound A dose levels when compared to the combined vehicle group. […]

AAV-HBV [7] = test: AAV-HBV mouse model, sequential treatment; assay type: in vivo, male C57BL/6 mice; details: 30 mg/kg Compound A alone
Text: After 35 days of infection with AAV-HBV, sequential treatment of the infected male C57BL/6 mice began first with Compound A followed by bepirovirsen.
[…], reductions in HBsAg was observed, reaching a maximum reduction of over 1 log and nearly 2 logs, respectively, by the second week. This reduction was statistically significant when compared to the combined vehicle group.

[8] = preclinical; terminated in Phase 1 clinical trials due to toxicity; cited from earlier work

Sequence of PAPD5 (Q8NDF8 whole entry): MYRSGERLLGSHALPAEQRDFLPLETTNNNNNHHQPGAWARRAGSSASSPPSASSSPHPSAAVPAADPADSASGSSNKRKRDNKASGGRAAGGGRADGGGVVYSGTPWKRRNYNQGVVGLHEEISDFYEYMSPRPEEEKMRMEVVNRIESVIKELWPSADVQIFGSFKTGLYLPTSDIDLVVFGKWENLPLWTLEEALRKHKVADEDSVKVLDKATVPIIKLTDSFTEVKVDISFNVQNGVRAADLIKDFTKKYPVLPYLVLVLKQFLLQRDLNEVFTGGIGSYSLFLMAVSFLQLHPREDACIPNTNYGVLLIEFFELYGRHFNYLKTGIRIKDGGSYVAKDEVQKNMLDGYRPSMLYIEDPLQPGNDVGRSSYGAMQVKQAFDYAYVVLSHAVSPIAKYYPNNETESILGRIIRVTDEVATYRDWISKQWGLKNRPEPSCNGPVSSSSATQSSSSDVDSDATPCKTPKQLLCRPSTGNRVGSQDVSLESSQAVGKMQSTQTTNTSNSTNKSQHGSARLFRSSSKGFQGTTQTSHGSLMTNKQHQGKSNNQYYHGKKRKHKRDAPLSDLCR
Sequence of PAPD7 (Q5XG87 whole entry): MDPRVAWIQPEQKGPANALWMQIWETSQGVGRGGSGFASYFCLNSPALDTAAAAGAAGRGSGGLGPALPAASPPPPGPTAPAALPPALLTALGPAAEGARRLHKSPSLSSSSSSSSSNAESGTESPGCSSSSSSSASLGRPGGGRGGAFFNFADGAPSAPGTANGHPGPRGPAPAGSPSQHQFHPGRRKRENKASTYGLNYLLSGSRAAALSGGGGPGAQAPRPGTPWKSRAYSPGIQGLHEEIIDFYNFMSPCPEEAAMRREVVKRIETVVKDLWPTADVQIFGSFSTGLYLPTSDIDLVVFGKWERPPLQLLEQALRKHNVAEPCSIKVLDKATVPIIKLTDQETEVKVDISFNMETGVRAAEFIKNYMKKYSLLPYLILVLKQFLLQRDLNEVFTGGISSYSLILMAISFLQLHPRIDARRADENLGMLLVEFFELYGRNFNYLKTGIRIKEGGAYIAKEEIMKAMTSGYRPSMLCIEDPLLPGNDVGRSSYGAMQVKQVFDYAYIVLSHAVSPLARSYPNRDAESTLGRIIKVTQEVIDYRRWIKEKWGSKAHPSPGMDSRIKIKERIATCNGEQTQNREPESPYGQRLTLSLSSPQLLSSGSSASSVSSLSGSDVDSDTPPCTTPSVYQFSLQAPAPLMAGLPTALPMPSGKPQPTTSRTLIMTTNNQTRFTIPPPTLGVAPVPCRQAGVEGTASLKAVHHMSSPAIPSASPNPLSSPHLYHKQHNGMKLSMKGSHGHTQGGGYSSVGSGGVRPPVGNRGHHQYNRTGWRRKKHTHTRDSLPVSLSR

In the case of `COCCCOc1cc2c(nc1Cl)-c1cc(=O)c(C(=O)O)cn1[C@H]1[C@@H]2CCC1(C)C` [Compound A], the IC50 (HBV HBsAg [1]) is reported as 0.00095 µg/mL and 2.19 nM, the IC50 (HBV HBsAg [1]; 504 h, read-out: average pIC50 for reduction of HBV HBsAg (converted)) is reported as 0.832 nM and the IC90 (HBV HBsAg [1]; read-out: Calculated IC90) is reported as 8.55 ng/mL (≈ 0.0198 µM). The “cell toxicity (visual examination)” value [2] was “no detected sign of cell toxicity”, the “no adverse effect dose” value [3] was “No adverse effect doses were established” and the “no adverse effect dose” value [4] was “No adverse effect doses were established”. The IC50 (HBV HBsAg [5]; HePAD38) was 0.00056 µg/mL and 1.3 nM, the EC50 (HBV HBsAg [5]) was 0.3 nM and the IC90 (HBV HBsAg [5]; HePAD38, read-out: Calculated IC90) was 5.04 ng/mL (≈ 0.0116 µM). For the same molecule, the IC50 (PAPD5; 10 nM enzyme, 5 uM ATP, 50 nM A15 RNA, read-out: average pIC50 PAPD5 (converted)) was 12.6 nM, the “more potent than RG7834 by” value (PAPD5; PAPD5 and PAPD7 assays (FIG. 2)) was > 0.5 log and the IC50 (PAPD7) was 20 nM. The “reduction in HBsAg” value (AAV-HBV [6]; Compound A 0.3 mg/kg, over the course of treatment) was “minimal reduction in HBsAg”, the “HBsAg reduction compared to the combined vehicle group” value (AAV-HBV [6]; Compound A 3 mg/kg or 30 mg/kg) was “statistically significant HBsAg reduction” and the HBsAg reduction (AAV-HBV [6]; Compound A 3 mg/kg) was ~1 log. The “maximum observed reduction in HBeAg” value (AAV-HBV [6]; Compound A 30 mg/kg) was 0.5 log, the HBsAg reduction (AAV-HBV [6]; Compound A 30 mg/kg) was 1 log and the HBsAg levels off-treatment (AAV-HBV [6]; Compound A, following one week off-treatment) was “rebounded to baseline”. The IC50 (AAV-HBV [6]; Mus musculus) was 5.8e-05 µg/mL and 0.13 nM, the IC90 (AAV-HBV [6]; Mus musculus, read-out: Calculated IC90) was 0.522 ng/mL (≈ 0.00121 µM) and the “effect on levels of HBeAg” value (AAV-HBV [6]; during treatment with Compound A, stabilized after day 7, rebounded within one week after end) was “dose dependent reduction”. The HBsAg off-treatment (AAV-HBV [7]; within one week off-treatment) was “rebounded to baseline” and the “reduction in HBsAg” value (AAV-HBV [7]; within one week, stable up to 28 days, statistically significant) was ~1 log.
Work on `Cc1cc2c(cc1OCC1COC1)CC1(CCC1)n1cc(C(=O)O)c(=O)cc1-2` [Compound B, reference compound] yielded an EC50 (HBV HBsAg [5]) of 3 nM.
In the case of `COCCCOc1cc2c(cc1OC)-c1cc(=O)c(C(=O)O)cn1[C@H](C(C)C)C2` [RG7834, reference compound], the EC50 (HBV HBsAg [5]) is given as 2 nM and the “no adverse effect dose” value [8] is given as “no adverse effect dose could not be established”.
